Data published in patent US7199120B2, “Pyrazolo-pyridine derivatives as antiherpes agents” (SmithKline Beecham Corporation, priority 2001, dated 2007).

Tested on: HSV-1
Test: HSV-1 replication in infected Vero 76 cells, viral DNA hybridization capture assay
Type: cell-based, herpes simplex virus 1
Settings: Human alphaherpesvirus 1; HSV-1 (MOI=0.001) in Vero 76 cells, 40–48 hours incubation, chemiluminescent detection of HSV DNA
Method: Vero 76 cells were maintained in MEM with Earle's salts, L-glutamine, 8% FBS (Hyclone, A-1111-L) and 100 units/mL Penicillin-100 μg/mL Streptomycin. For assay conditions, FBS was reduced to 2%. Cells are seeded into 96-well tissue culture plates at a density of 5×10^4 cells/well after being incubated for 45 min at 37° C. in the presence of HSV-1 or HSV-2 (MOI=0.001). Test compounds are added to the wells and the plates are incubated at 37° C. for 40–48 hours. Cell lysates are prepared as follows: media was removed and replaced with 150 μL/well 0.2 N NaOH with 1% Igepal CA 630 or NP-40. Plates were incubated up to 14 days at room temperature in a humidified chamber to prevent evaporation.
For the detection probe, a gel-purified, digoxigenin-labeled, 710-bp PCR fragment of the HSV UL-15 sequence was utilized. PCR conditions included 0.5 μM primers, 180 μM dTTP, 20 μM dUTP-digoxigenin (Boehringer Mannheim 1558706), 200 μM each of dATP, dCTP, and dGTP, 1×PCR Buffer II (Perkin Elmer), 2.5 mM MgCl2, 0.025 units/μL of AmpliTaq Gold polymerase (Perkin Elmer), and 5 ng of gel-purified HSV DNA per 100 μL Extension conditions were 10 min at 95° C., followed by 30 cycles of 95° C. for 1 min, 55° C. for 30 sec, and 72° C. for 2 min. The amplification was completed with a 10-min incubation at 72° C. Primers were selected to amplify a 728 bp probe spanning a section of the HSV1 UL15 open reading frame (nucleotides 249–977). Single-stranded transcripts were purified with Promega M13 Wizard kits. The final product was mixed 1:1 with a mixture of 6 M GuSCN, 100 mM EDTA and 200 μg/mL herring sperm DNA and stored at 4° C.
The capture DNA plasmid (HSV UL13 region in pUC) was linearized by cutting with Xba I, denatured for 15 min at 95° C. and diluted immediately into Reacti-Bind DNA Coating Solution (Pierce, 17250, diluted 1:1 with TE buffer, pH 8) at 1 ng/μL 75 μL/well were added to Corning (#3922 or 9690) white 96-well plates and incubated at room temperature for at least 4 hrs before washing twice with 300 μL/well 0.2×SSC/0.05% Tween-20 (SSC/T buffer). The plates were then incubated overnight at room temperature with 150 μL/well 0.2 N NaOH, 1% IGEPAL and 10 μg/mL herring sperm DNA.
Twenty-seven (27) μL of cell lysate was combined with 45 μL of hybridization solution (final concentration: 3M GuSCN, 50 mM EDTA, 100 μg/ml salmon sperm DNA, 5× Denhardt's solution, 0.25×APE, and 5 ng of the digoxigenin-labeled detection probe). APE is 1.5 M NH4-acetate, 0.15 M ammonium phosphate monobasic, and 5 mM EDTA adjusted to pH 6.0. Mineral oil (50 μL) was added to prevent evaporation. The hybridization plates were incubated at 95° C. for 10 minutes to denature the DNA, then incubated at 42° C. overnight. The wells were washed 6× with 300 μl/well SSC/T buffer then incubated with 75 μL/well anti-digoxigenin-HRP-conjugated antibody (Boehringer Mannheim 1207733, 1:5000 in TE) for 30 min at room temperature. The wells were washed 6× with […] with PBS/0.05% Tween-20 before 75 μL/well SuperSignal LBA substrate (Pierce) was added. The plates were incubated at room temperature for 30 minutes and chemiluminescence was measured in a Wallac Victor reader.

Row | SMILES | IC50 [nM]
1 | c1cc(NC2CCCC2)n2nc(-c3ccncc3)c(-c3ccnc(NC4CCCC4)n3)c2c1 [Example 1, N-Cyclopentyl-3-[2-(cyclopentylamino)-4-pyrimidinyl]-2-(4-pyridinyl)pyrazolo[1,5-a]pyridin-7-amine] | 1500
2 | c1cncc(-c2nn3c(NC4CCCC4)cccc3c2-c2ccnc(NC3CCCC3)n2)c1 [Example 3, N-cyclopentyl-3-[2-(cyclopentylamino)-4-pyrimidinyl]-2-(3-pyridinyl)pyrazolo[1,5-a]pyridin-7-amine] | 600
3 | c1ccn2nc(-c3ccnc(NC4CCCC4)n3)c(-c3ccnc(NC4CCCC4)n3)c2c1 [Example 4, N-Cyclopentyl-N-(4-{2-[2-(cyclopentylamino)-4-pyrimidinyl]pyrazolo[1,5-a]pyridin-3-yl]-2-pyrimidinyl)amine] | 3100
4 | c1cc(NC2CCCC2)n2nc(-c3ccnc(NC4CCCC4)n3)c(-c3ccnc(NC4CCCC4)n3)c2c1 [Example 6, N-Cyclopentyl-2,3-bis[2-(cyclopentylamino)-4-pyrimidinyl]pyrazolo[1,5-a]pyridin-7-amine] | 400
5 | CCCCNc1nccc(-c2nn3c(NCCCC)cccc3c2-c2ccnc(NCCCC)n2)n1 [Example 8, N-Butyl-2,3-bis[2-(butylamino)pyrimidin-4-yl]pyrazolo[1,5-a]pyridin-7-amine] | 800
6 | c1cc(NC2CC2)n2nc(-c3ccnc(NC4CC4)n3)c(-c3ccnc(NC4CC4)n3)c2c1 [Example 9, N-Cyclopropyl-2,3-bis[2-(cyclopropylamino)pyrimidin-4-yl]pyrazolo[1,5-a]pyridin-7-amine] | 23000
7 | c1cc(N2CCOCC2)n2nc(-c3ccnc(N4CCOCC4)n3)c(-c3ccnc(N4CCOCC4)n3)c2c1 [Example 10] | 33000
8 | CC(C)CNc1nccc(-c2nn3c(NCC(C)C)cccc3c2-c2ccnc(NCC(C)C)n2)n1 [Example 11, N-Isobutyl-2,3-bis[2-(isobutylamino)pyrimidin-4-yl]pyrazolo[1,5-a]pyridin-7-amine] | 1600
9 | c1ccc(CNc2nccc(-c3nn4c(NCc5ccccc5)cccc4c3-c3ccnc(NCc4ccccc4)n3)n2)cc1 [Example 12, N-Benzyl-2,3-bis[2-(benzylamino)pyrimidin-4-yl]pyrazolo[1,5-a]pyridin-7-amine] | 36000
10 | CC(C)Nc1nccc(-c2nn3c(NC(C)C)cccc3c2-c2ccnc(NC(C)C)n2)n1 [Example 13, N-Isopropyl-2,3-bis[2-(isopropylamino)pyrimidin-4-yl]pyrazolo[1,5-a]pyridin-7-amine] | 3300
11 | CC(C)Nc1cc(-c2nn3c(NC(C)C)cccc3c2-c2ccnc(NC3CC3)n2)ccn1 [Example 17, 3-[2-(Cyclopropylamino)-4-pyrimidinyl]-N-isopropyl-2-[2-(isopropylamino)-4-pyridinyl]pyrazolo[1,5-a]pyridin-7-amine] | 2900
12 | CC(C)Nc1nccc(-c2c(-c3ccnc(NC4CCCC4)c3)nn3c(NC4CCCC4)cccc23)n1 [Example 18, N-Cyclopentyl-2-[2-(cyclopentylamino)-4-pyridinyl]-3-[2-(isopropylamino)-4-pyrimidinyl]pyrazolo[1,5-a]pyridin-7-amine] | 1000
13 | CC(C)Nc1cc(-c2nn3c(NC(C)C)cccc3c2-c2ccnc(NC3CCCC3)n2)ccn1 [Example 19, 3-[2-(Cyclopentylamino)-4-pyrimidinyl]-N-isopropyl-2-[2-(isopropylamino)-4-pyridinyl]pyrazolo[1,5-a]pyridin-7-amine] | 700
14 | CC(C)Nc1cc(-c2nn3c(NC4CCCC4)cccc3c2-c2ccnc(NC3CCCC3)n2)ccn1 [Example 20, N-Cyclopentyl-3-[2-(cyclopentylamino)-4-pyrimidinyl]-2-[2-(isopropylamino)-4-pyridinyl]pyrazolo[1,5-a]pyridin-7-amine] | 500
15 | c1coc(-c2nn3c(NC4CCCC4)cccc3c2-c2ccnc(NC3CCCC3)c2)c1 [Example 21, N-Cyclopentyl-3-[2-(cyclopentylamino)-4-pyridinyl]-2-(2-furyl)pyrazolo[1,5-a]pyridin-7-amine] | 500
16 | Cc1ccoc1-c1nn2c(NC3CCCC3)cccc2c1-c1ccnc(NC2CCCC2)n1 [Example 22, N-Cyclopentyl-3-[2-(cyclopentylamino)-4-pyrimidinyl]-2-(3-methyl-2-furyl)pyrazolo[1,5-a]pyridin-7-amine] | 200
17 | Cc1ccoc1-c1nn2c(NC3CCCC3)cccc2c1-c1ccnc(NC2CC2)n1 [Example 23, N-Cyclopentyl-3-[2-(cyclopropylamino)-4-pyrimidinyl]-2-(3-methyl-2-furyl)pyrazolo[1,5-a]pyridin-7-amine] | 800
18 | Cc1ccoc1-c1nn2c(NC3CC3)cccc2c1-c1ccnc(NC2CC2)n1 [Example 24, N-Cyclopropyl-3-[2-(cyclopropylamino)-4-pyrimidinyl]-2-(3-methyl-2-furyl)pyrazolo[1,5-a]pyridin-7-amine] | 5000
19 | c1coc(-c2nn3c(NC4CCCC4)cccc3c2-c2ccnc(NC3CCCC3)n2)c1 [Example 25, N-Cyclopentyl-3-[2-(cyclopentylamino)-4-pyrimidinyl]-2-(2-furyl)pyrazolo[1,5-a]pyridin-7-amine] | 500
20 | c1coc(-c2nn3c(NC4CC4)cccc3c2-c2ccnc(NC3CCCC3)n2)c1 [Example 26, 3-[2-(Cyclopentylamino)-4-pyrimidinyl]-N-cyclopropyl-2-(2-furyl)pyrazolo[1,5-a]pyridin-7-amine] | 1400
21 | Brc1ccc(-c2nn3c(NC4CCCC4)cccc3c2-c2ccnc(NC3CCCC3)n2)o1 [Example 27, 2-(5-Bromo-2-furyl)-N-cyclopentyl-3-[2-(cyclopentylamino)-4-pyrimidinyl]pyrazolo[1,5-a]pyridin-7-amine] | 500
22 | Cc1nc(-c2nn3c(NC4CCCC4)cccc3c2-c2ccnc(NC3CCCC3)c2)cs1 [Example 28, N-Cyclopentyl-3-[2-(cyclopentylamino)-4-pyridinyl]-2-(2-methyl-1,3-thiazol-4-yl)pyrazolo[1,5-a]pyridin-7-amine] | 1700
